Entries after “also recorded” stand apart in the source; their conditions may differ.

Here are results for one molecule from US10551384B2, “MTOR kinase mutations and methods of use thereof” (RUTGERS, THE STATE UNIVERSITY OF NEW JERSEY, priority 2016, dated 2020).

One test concerns TOR2-mTOR L2185A mutant. Nature of the test: Yeast spotting assay for drug resistance, TOR2-mTOR L2185A. The conditions noted are these: 37° C., amphotericin B present (except OSI-027). It is filed as cell-based, S. cerevisiae. An excerpt:
(§1) FIGS. 4A-C. […] (FIG. 4A) Scheme of a yeast-based screen for drug-resistant mutations in mTOR kinase domain. mTOR kinase domain is amplified by error-prone PCR to generate randomized mutations, which is then recombined in frame into the TOR2-mTOR plasmid by gap-repair in tort-dg cells, and is selected on SC-leucine minus plates. Replica plating is then made onto SC-leucine plates containing DMSO or mTOR kinase inhibitor for selection of drug resistant clones. (FIG. 4B) tor2-dg cells expressing WT or mutant TOR2-mTOR were serially diluted by 10-fold and assayed for sensitivity to different mTOR kinase inhibitors in the presence of amphotericin B. Vector and TOR2 were used as controls. Drug resistant assay was performed at 37° C. in the presence of amphotericin B (except OSI-027). (FIG. 4C) Systematic mutational analysis of L2185 on drug resistance. tort-dg cells expressing WT or mutant TOR2-mTOR carrying all possible mutations at L2185 were serially diluted by 10-fold and tested for sensitivity to different mTOR kinase inhibitors at 37° C.
(§2) To enhance yeast cell permeability, log phase W303 tort-dg cells were spread evenly on SD-Leu agarose plates. After drying, small sterile filter discs were placed on the surface and 5 μl of indicated mTOR inhibitors or DMSO were applied to each disc with or without adding 5 μl of amphotericin B (10 μM), miconazole (50 μM) or caspofungin (50 μM). Plates were incubated at 37° C. for 3 day. Drug resistance profiles of TOR2-mTOR mutant cells were determined by the spotting assay. For this assay, 10-fold serial dilutions of cells were spotted on SD-leu plates in the presence of indicated mTOR inhibitors with or without amphotericin B (200 nM) and incubated at 37° C. for 3 day.

For test [1], the system named is xenograft tumors derived from SW480 cells carrying homozygous mTOR(L2185A) alleles. The test is described as follows: SW480 xenograft tumor model, mTOR(L2185A). It is filed as in vivo, mice. On the procedure: FIGS. 6A-E. L2185A mutation renders resistance of xenograft tumors to mTOR kinase inhibitors. (FIG. 6A) Mice bearing xenograft tumors derived from SW480 cells expressing WT mTOR were administered with INK128 at 1 mg/kg or 0.3 mg/kg, once daily via intraperitoneal injection. Shown are representative animals and excised tumors after drug treatment. (FIG. 6B) Same as FIG. 6A except xenograft tumors were derived from SW480 carrying homozygous mTOR(L2185A) alleles. (FIG. 6C) Tumor volume measurement for SW480 xenograft tumors expressing mTOR (WT) (expressed as means±SD; n=8, *P<0.01, vs. vehicle control). (FIG. 6D) Tumor volume measurement for SW480 xenograft tumors expressing mTOR(L2185A) mutant (expressed as means±SD; n=8). (FIG. 6E) Tissue extracts from xenograft tumors at the end of treatment with or without 1 mg/kg INK128 were analyzed for the level of P-S6K, S6K, P-S6, S6, P-4E-BP1, 4E-BP1, P-AKT and AKT was analyzed by immunoblot. Six tumor samples from each animal group were shown with each lane representing an individual tumor sample.
Female athymic NCr-nu/nu mice (4-6 weeks old) were obtained from Taconic Farms. […] Tumor volume was calculated by the following formula: tumor volume (mm^3)=(shorter diameter^2× longer diameter)/2 and are presented as means±SD (n=8) (Zhang, Y., and Zheng, X. (2012). Cell Cycle 11, 594-603). […]

In a further test the test system is TOR2-mTOR L2185G mutant. Nature of the test: Yeast spotting assay for drug resistance, TOR2-mTOR L2185G. Type of test: cell-based, S. cerevisiae. The following applies: 37° C., with amphotericin B.
Description: as §1, §2

Test [2] deals with mTORC1 and mTORC2 signaling in SW480 mTOR(L2185A) cells. Nature of the test: mTORC1/mTORC2 signaling immunoblot in SW480 cells carrying L2185A mutant mTOR. Type of test: cell-based, human. The conditions noted are these: various concentrations, 1 hr, immunoblot of P-S6K, P-4E-BP1, P-AKT. On the procedure: (FIG. 5A) SW480 cells carrying homozygous WT mTOR or L2185A mutant alleles were treated with various concentrations of AZD8055, INK-128, OSI-027 and PP242 for 2 day. Growth of SW480 cells was measured by SRB assay. Data represent means±SD in three independent experiments. (FIG. 5B) SW480 cells carrying homozygous WT and L2185A mutant mTOR allele were treated with a single dose of AZD8055 (100 nM), INK-128 (100 nM), OSI-027 (6,000 nM), and PP242 (2,000 nM) for different times. Cell growth was measured by SRB assay. The drug carrier DMSO was used as a control. Data represent means±SD in three independent experiments. (FIG. 5C) SW480 cells carrying homozygous WT and L2185A mutant mTOR were treated with various concentrations of INK-128, OSI-027, AZD8055 and PP242 for 1 hr. The effect on the level of P-S6K, S6K, P-4E-BP1, 4EB-P1, P-AKT and AKT was analyzed by immunoblot. […] The growth of SW480 cells was measured by SRB assay. Data represent means±SD in three independent experiments.
Antibodies against tubulin, S6K, phospho-S6K (Thr389), 4E-BP1, phospho-4E-BP1 (Thr37/46), Akt, phospho-Akt (Thr308), and phospho-Akt (Ser473) were purchased from Cell Signaling Technology. […] For drug sensitivity test, cancer cells were seeded in 96-well plates at a density of 2,000 cells per well. 24 hours later, different concentrations of mTOR inhibitors were added in quadruplicate. Cell growth was measured by the sulforhodamine B (SRB) assay as previously described (Vichai, V., and Kirtikara, K. (2006). Nature protocols 1, 1112-1116).

On to `CC(C)n1nc(-c2ccc3oc(N)nc3c2)c2c(N)ncnc21` [INK128], for which, in the test on TOR2-mTOR L2185A mutant, the “drug resistance/sensitivity of TOR2-mTOR L2185A mutant yeast” value is given as “confer resistance; also recorded: conferring resistance”. In test [1] (1 mg/kg or 0.3 mg/kg once daily, intraperitoneal injection), the “growth of mTOR(L2185A) xenograft tumors” value was “little or no effect”. Further, the “mTORC1 and mTORC2 signaling in mTOR(L2185A) xenograft tumors” value in test [1] (1 mg/kg, tumor extracts at end of treatment, immunoblot) is “drug-resistance in mTORC1 and mTORC2 signaling”. Further, the “drug resistance of TOR2-mTOR L2185G mutant yeast” value in the test on TOR2-mTOR L2185G mutant was “moderately resistant”. Also, the “drug resistance of mTORC1 and mTORC2 signaling, SW480 L2185A vs WT” value in test [2] was “drug-resistant signaling by both mTORC1 and mTORC2”.
